In US20200131144A1, “AMINE OR (THIO)AMIDE CONTAINING LXR MODULATORS” (Phenex-FXR GmbH, priority 2017, published 2020) one finds EC50 and FRETβ data, which are given here for 30 compounds.

Where only a bound is given, the exact number is not on record here.

In assay [1] the target is T1, GST-LXRβ ligand-binding domain (Homo sapiens, UniProt P55055, INS174Q).
T1 construct: amino acids 156-461; NP009052; made in house; host or cells: E. coli
T1 sequence (P55055 with tags, fused parts or gaps INS174Q limits assumed): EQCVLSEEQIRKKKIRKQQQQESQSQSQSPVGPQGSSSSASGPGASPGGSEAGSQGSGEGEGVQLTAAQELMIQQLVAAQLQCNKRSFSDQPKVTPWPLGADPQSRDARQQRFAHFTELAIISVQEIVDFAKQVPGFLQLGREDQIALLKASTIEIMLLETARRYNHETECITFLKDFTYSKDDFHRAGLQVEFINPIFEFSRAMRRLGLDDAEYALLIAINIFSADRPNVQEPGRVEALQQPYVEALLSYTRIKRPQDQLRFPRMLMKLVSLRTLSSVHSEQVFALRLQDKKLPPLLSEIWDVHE
The assay is described as follows: TR-FRETβ activity assay (NCoA3 coactivator peptide recruitment). It counts as biochemical. To be noted: 1 μM 24(S)-25-epoxycholesterol as prestimulating agonist; inverse agonist unless *. The procedure, abridged: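 Coactivator recruitment read as TR-FRET (ex 340, em 615 and 665 nm) after 1 h equilibration at 4° C, in triplicate. Mix held 76 nM GST-tagged LXRβ LBD (aa 156-461, E. coli), 400 nM biotin-NCoA3 peptide, Tb-cryptate anti-GST, streptavidin-XL665, 240 mM KCl buffer.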

In assay [2] the target is T2, LXRβ full length (FL) (Homo sapiens, UniProt P55055, INS174Q).
T2 construct: the full length (FL) proteins of LXRα (amino acids 1-447); NP005684; NP009052; expressed in transfected cells; host or cells: HEK293
T2 sequence (P55055 with tags, fused parts or gaps INS174Q): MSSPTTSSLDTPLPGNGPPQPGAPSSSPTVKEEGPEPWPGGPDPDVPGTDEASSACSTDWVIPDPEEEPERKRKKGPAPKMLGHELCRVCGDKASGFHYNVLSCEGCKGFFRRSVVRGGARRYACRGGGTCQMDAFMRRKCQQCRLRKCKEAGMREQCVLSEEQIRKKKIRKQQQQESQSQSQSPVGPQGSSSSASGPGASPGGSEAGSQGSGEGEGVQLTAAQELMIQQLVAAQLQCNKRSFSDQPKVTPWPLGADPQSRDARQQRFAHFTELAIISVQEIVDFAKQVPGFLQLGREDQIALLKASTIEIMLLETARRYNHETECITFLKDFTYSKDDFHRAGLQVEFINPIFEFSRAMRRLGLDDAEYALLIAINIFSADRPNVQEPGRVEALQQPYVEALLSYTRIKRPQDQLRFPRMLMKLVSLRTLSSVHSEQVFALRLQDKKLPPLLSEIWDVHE
The assay can be described thus: LXR Gal4 reporter transient transfection assay, mammalian two-hybrid, FL-M2H Gal4β. It counts as cell-based. To be noted: HEK293 cells; inverse agonist unless *. The procedure, abridged:
(§1)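 Mammalian two-hybrid read-out: interaction of LXRα or LXRβ (full length or ligand-binding domain, NFkB activation-domain fusions) with GAL4-fused SRC1 or NCoR domains drives GAL4-responsive firefly luciferase in HEK293 cells, normalised by Renilla cotransfection. Compounds given 4 h after transfection, ≤0.2% vehicle, cells lysed after 16 h.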

Assay [3] addresses T3, LXRα full length (FL) (Homo sapiens, UniProt Q13133).
T3 construct: the full length (FL) proteins of LXRα (amino acids 1-447); NP005684; expressed in transfected cells; host or cells: HEK293
T3 sequence (Q13133 1-447): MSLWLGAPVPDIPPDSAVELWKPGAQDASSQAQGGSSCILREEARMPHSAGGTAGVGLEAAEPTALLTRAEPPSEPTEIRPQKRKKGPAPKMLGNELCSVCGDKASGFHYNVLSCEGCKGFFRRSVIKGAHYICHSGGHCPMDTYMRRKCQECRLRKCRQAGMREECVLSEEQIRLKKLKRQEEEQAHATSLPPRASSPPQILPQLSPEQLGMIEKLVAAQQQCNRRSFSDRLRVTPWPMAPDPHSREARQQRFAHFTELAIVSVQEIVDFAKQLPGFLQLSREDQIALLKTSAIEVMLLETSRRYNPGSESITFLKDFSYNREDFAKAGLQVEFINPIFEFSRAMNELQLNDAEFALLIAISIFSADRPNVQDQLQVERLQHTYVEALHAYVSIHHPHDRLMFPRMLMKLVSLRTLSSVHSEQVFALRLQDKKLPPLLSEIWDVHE
The assay is described as follows: LXR Gal4 reporter transient transfection assay, mammalian two-hybrid, FL-M2H Gal4α. The assay is classed as cell-based. To be noted: HEK293 cells; inverse agonist unless *. An outline of the steps:
as §1

Take `Cc1ccc2ccccc2c1C(=O)N(Cc1ccc(-c2cccc(C(C)(N)C(=O)O)c2)cc1)Cc1ccc(C(F)(F)F)o1` (stereo not drawn) [27/74]: the EC50 was 100 to 1000 nM in assay [1], less than 100 nM in assay [2] and 100 to 1000 nM in assay [3].
Regarding `Cc1ccc2ccccc2c1C(=O)N(Cc1ccc(-c2cccc(C3(C(=O)O)CC3)c2)cc1)Cc1ccc(C(F)(F)F)o1` [27/75], the EC50 in assay [1] was 100 to 1000 nM; in assay [2], less than 100 nM; in assay [3], less than 100 nM.
`COc1nc(-c2cccc(C(C)(C)C(=O)O)c2)ccc1CN(Cc1ccc(C(F)(F)F)o1)C(=O)c1c(C)ccc2ccccc12` [27/77]: the results for the EC50 in assay [1], in assay [2] and in assay [3] were 1000 to 10000 nM, less than 100 nM and less than 100 nM, respectively.
Take `CN1CCc2nc3ccccc3c(C(=O)N(Cc3ccc(-c4cccc(C(C)(C)C(=O)O)c4)cc3)Cc3ccc(C(F)(F)F)o3)c2C1` [27/80]: the EC50 in assay [1], in assay [2] and in assay [3] was 100 to 1000 nM in each case.
Turning to `Cc1ccc2ccccc2c1CN(Cc1ccc(-c2cccc(C(=O)C(=O)O)c2)cc1)Cc1ccc(C(F)(F)F)o1` [27/82], the concentration for a half-maximal effect (EC50) in assay [1] was 1000 to 10000 nM; in assay [2], 100 to 1000 nM; in assay [3], 100 to 1000 nM.
Regarding `Cc1ccc2ccccc2c1C(=O)N(Cc1ccc(-c2cccc([C@H](C)C(=O)O)c2)cc1)Cc1cccc(C(F)(F)F)c1` [27/83], the EC50 in assay [1], in assay [2] and in assay [3] was less than 100 nM throughout.
Regarding `Cc1ccc2ccccc2c1C(=O)N(Cc1ccc(-c2cccc([C@H](C)C(=O)O)c2)cc1)Cc1cccc(C#N)c1` [27/84], the concentration giving a half-maximal response (EC50) in assay [1] was 100 to 1000 nM; in assay [2], less than 100 nM; in assay [3], less than 100 nM.
As to `COc1cc(-c2cccc(C(C)(C)C(=O)O)c2)ncc1CN(Cc1ccc(C(F)(F)F)o1)C(=O)c1c(C)ccc2ccccc12` [27/85], the results for the EC50 in assay [1], in assay [2] and in assay [3] were 1000 to 10000 nM, 100 to 1000 nM and 100 to 1000 nM, respectively.
For the compound `Cc1ccc2cnccc2c1C(=O)N(Cc1ccc(-c2cccc(C(C)(C)C(=O)O)c2)cc1)Cc1ccc(C(F)(F)F)o1` [27/86], the half-maximal effective concentration (EC50) in assay [1], in assay [2] and in assay [3] was less than 100 nM in each case.
As to `CCc1nc2cnccc2c(C(=O)N(Cc2ccc(-c3cccc(C(C)(C)C(=O)O)c3)cc2)Cc2ccc(C(F)(F)F)o2)c1C` [27/88], the concentration for a half-maximal effect (EC50) in assay [1] was 100 to 1000 nM; in assay [2], less than 100 nM; in assay [3] it was less than 100 nM.
`CCc1nc2ccncc2c(C(=O)N(Cc2ccc(-c3cccc(C(C)(C)C(=O)O)c3)cc2)Cc2ccc(C(F)(F)F)o2)c1C` [27/89]: the EC50 in assay [1] is 1000 to 10000 nM; in assay [2], 100 to 1000 nM; in assay [3], 100 to 1000 nM.
Regarding `Cc1nc2ccccc2c(C(=O)N(Cc2ccc(C(F)(F)F)o2)Cc2ncc(-c3cccc(C(C)C(=O)O)c3)cc2Cl)c1C` (stereo not drawn) [27/90], the EC50 in assay [1] is 100 to 1000 nM; in assay [2], less than 100 nM; in assay [3] it was less than 100 nM.
Take `Cc1ccc2ccccc2c1C(=O)N(Cc1ccc(C(F)(F)F)o1)Cc1ccc(-c2cccc(C(C)(C)C(=O)O)c2)nc1N` [27/91]: the EC50 in assay [1] was 1000 to 10000 nM; in assay [2], less than 100 nM; in assay [3] it was 100 to 1000 nM.
As to `Cc1nc2ncccc2c(C(=O)N(Cc2ccc(-c3cccc(C(C)(C)C(=O)O)c3)cc2)Cc2ccc(C(F)(F)F)o2)c1C` [27/92], the EC50 was 100 to 1000 nM in assay [1], less than 100 nM in assay [2] and 100 to 1000 nM in assay [3].
`Cc1c(C(=O)N(Cc2ccc(-c3cccc(C(C)(C)C(=O)O)c3)cc2)Cc2ccc(C(F)(F)F)o2)c2ccccc2n(C)c1=O` [27/94]: the EC50 is 100 to 1000 nM in assay [1], less than 100 nM in assay [2] and less than 100 nM in assay [3].
As to `CC1=C(C(=O)N(Cc2ccc(-c3cccc(C(C)(C)C(=O)O)c3)cc2)Cc2ccc(C(F)(F)F)o2)c2ccccc2CC1` [27/95], the concentration giving a half-maximal response (EC50) in assay [1], in assay [2] and in assay [3] was less than 100 nM throughout.
As to `CC(C)(C(=O)O)c1cccc(-c2ccc(CN(Cc3ccc(C(F)(F)F)o3)C(=O)C3C(C)(C)CCC3(C)C)cc2)c1` [27/97], the FRETβ result in assay [1] is listed as “C*”. The EC50 in assay [2] and in assay [3] was less than 100 nM throughout.
Turning to `CCOC(=O)c1ccc(CN(Cc2ncc(-c3cccc(C(C)C(=O)O)c3)cc2Cl)C(=O)c2c(C)c(C)nc3ccccc23)o1` (stereo not drawn) [27/98], the EC50 in assay [1], in assay [2] and in assay [3] was 100 to 1000 nM in each case.
Take `CCNC(=O)c1ccc(CN(Cc2ncc(-c3cccc(C(C)C(=O)O)c3)cc2Cl)C(=O)c2c(C)c(C)nc3ccccc23)o1` (stereo not drawn) [27/99]: the EC50 in assay [1], in assay [2] and in assay [3] was 1000 to 10000 nM throughout.
`Cc1nc2ccccc2c(C(=O)N(Cc2ccc(C(=O)N(C)C)o2)Cc2ncc(-c3cccc(C(C)C(=O)O)c3)cc2Cl)c1C` (stereo not drawn) [27/100]: the figures for the EC50 in assay [1], in assay [2] and in assay [3] were more than 10000 nM, 1000 to 10000 nM and 1000 to 10000 nM, respectively.
On to `Cc1cnc2ccccc2c1C(=O)N(Cc1ccc(-c2cccc(C(C)(C)C(=O)O)c2)cc1)Cc1ccc(C(F)(F)F)o1` [27/103], for which the EC50 in assay [1], in assay [2] and in assay [3] was less than 100 nM throughout.
Turning to `COc1cc(-c2cccc(C(C)(C)C(=O)O)c2)ccc1CN(Cc1ccc(C(F)(F)F)o1)C(=O)c1c(C)c(C)nc2ccccc12` [27/104], the EC50 is 100 to 1000 nM in assay [1], less than 100 nM in assay [2] and less than 100 nM in assay [3].
In the case of `Cc1nc2ccccc2c(C(=O)N(Cc2ccc(C(F)(F)F)o2)Cc2ccc(-c3cccc(C(C)(C)C(=O)O)c3)cc2C#N)c1C` [27/105], the EC50 in assay [1] was 100 to 1000 nM; in assay [2] it was less than 100 nM; in assay [3], less than 100 nM.
Consider `COc1cc(-c2cccc(C(C)(C)C(=O)O)c2)ccc1CN(Cc1ccc(C(F)(F)F)o1)C(=O)c1c(C)c(C)nc2cccnc12` [27/108], for which the EC50 was 100 to 1000 nM in assay [1], less than 100 nM in assay [2] and less than 100 nM in assay [3].
Take `Cc1nc2cccnc2c(C(=O)N(Cc2ccc(C(F)(F)F)o2)Cc2ccc(-c3cccc(C(C)(C)C(=O)O)c3)cc2C#N)c1C` [27/109]: the EC50 in assay [1] was 1000 to 10000 nM; in assay [2], 100 to 1000 nM; in assay [3] it was 100 to 1000 nM.
In the case of `Cc1nc2cccnc2c(C(=O)N(Cc2ccc(-c3cccc(C(C)C(=O)O)c3)cc2)Cc2ccc(C(F)(F)F)o2)c1C` (stereo not drawn) [27/110], the EC50 in assay [1] was 100 to 1000 nM; in assay [2], less than 100 nM; in assay [3], less than 100 nM.
As for `Cc1cc(C(=O)N(Cc2ccc(-c3cccc(C(C)(C)C(=O)O)c3)cc2)Cc2ccc(C(F)(F)F)o2)c2ncccc2n1` [27/111], the EC50 was 1000 to 10000 nM in assay [1], less than 100 nM in assay [2] and 100 to 1000 nM in assay [3].
Taken in the same sequence, the figures for `Cc1nc2cccnc2c(C(=O)N(Cc2ccc(-c3cccc(C4(C(=O)O)CC4)c3)cc2)Cc2ccc(C(F)(F)F)o2)c1C` [27/112] were 100 to 1000 nM, less than 100 nM and less than 100 nM.
As for `Cc1nc2cccnc2c(C(=O)N(Cc2ccc(-c3cc(F)cc(C4(C(=O)O)CC4)c3)cc2)Cc2ccc(C(F)(F)F)o2)c1C` [27/113], the EC50 in assay [1] is 100 to 1000 nM; in assay [2], less than 100 nM; in assay [3], less than 100 nM.
Regarding `Cc1nc2cccnc2c(C(=O)N(Cc2ccc(C(F)(F)F)o2)Cc2ccc(-c3cccc(C(C)(C)C(=O)O)c3)cc2F)c1C` [27/114], the EC50 in assay [1] was 100 to 1000 nM; in assay [2], less than 100 nM; in assay [3] it was less than 100 nM.
